Reference: patent publication US20140162980A1, “NOVEL MICROBIOCIDAL DIOXIME ETHER DERIVATIVES” (SYNGENTA CROP PROTECTION LLC, priority 2010, published 2014)

Assays:
[1] = test system: Puccinia recondita f. sp. tritici; assay: Puccinia recondita f. sp. tritici / wheat / leaf disc curative (brown rust); format: in vivo; conditions: foliar, 200 ppm applied 1 day after inoculation, wheat leaf segments cv Kanzler, assessed 6-8 days after application, read-out: control of Puccinia recondita f. sp. tritici, curative (percent disease control compared to untreated)
Experimental: Puccinia Recondita f. Sp. Tritici/Wheat/Leaf Disc Curative (Brown Rust): Wheat leaf segments cv Kanzler were placed on agar in 24-well plates. The leaf segments were inoculated with a spore suspension of the fungus. The plates were stored in darkness at 19° C. and 75% relative humidity. The formulated test compound diluted in water was applied at an application rate of 200 ppm 1 day after inoculation.

Alternaria solani = Alternaria solani / tomato / leaf disc (early blight); format: in vivo; conditions: foliar, tomato leaf disks cv. Baby, inoculated 2 days after application, assessed 5-7 days after application, read-out: control of Alternaria solani (percent disease control compared to untreated)
Experimental: Alternaria Solani/Tomato/Leaf Disc (Early Blight): Tomato leaf disks cv. Baby are placed on agar in multiwell plates (24-well format) and sprayed with the formulated test compound diluted in water at an application rate of 200 ppm. The leaf disks are inoculated with a spore suspension of the fungus 2 days after application. The inoculated leaf disks are incubated at 23° C./21° C.

[2] = test system: Botryotinia fuckeliana (Botrytis cinerea); assay: Botryotinia fuckeliana (Botrytis cinerea) / liquid culture (gray mould); format: cell-based; conditions: Vogels broth, 24° C., 3-4 days after application, read-out: control of Botryotinia fuckeliana (inhibition of growth, photometrically)
Experimental: Botryotinia Fuckeliana (Botrytis cinerea)/Liquid Culture (Gray Mould): Conidia of the fungus from cryogenic storage were directly mixed into nutrient broth (Vogels broth). After placing a DMSO solution of test compound into a 96-well microtiter plate at an application rate 200 ppm, the nutrient broth containing the fungal spores was added. The test plates were incubated at 24° C. and the inhibition of growth was determined photometrically 3-4 days after application.

[3] = test system: Phaeosphaeria nodorum (Septoria nodorum); assay: Phaeosphaeria nodorum (Septoria nodorum) / wheat / leaf disc preventative (glume blotch); format: in vivo; conditions: Parastagonospora nodorum, foliar, wheat leaf segments cv Kanzler, inoculated 2 days after application, assessed 5-7 days after application, read-out: control of Phaeosphaeria nodorum (percent disease control compared to untreated)
Experimental: Phaeosphaeria Nodorum (Septoria nodorum)/Wheat/Leaf Disc Preventative (Glume Blotch): Wheat leaf segments cv Kanzler were placed on agar in a 24-well plate and sprayed with formulated test compound diluted in water at an application rate of 200 ppm. The leaf disks are inoculated with a spore suspension of the fungus 2 days after application. The inoculated test leaf disks are incubated at 20° C. and 75% relative humidity under a light regime of 12/12 h (light/dark) in a climate cabinet and the activity of a compound is assessed as percent disease control compared to untreated when an appropriate level of disease damage appears in untreated check leaf disks (5-7 days after application).

[4] = test system: Thanatephorus cucumeris (Rhizoctonia solani); assay: Thanatephorus cucumeris (Rhizoctonia solani) / liquid culture (foot rot, damping-off); format: cell-based; conditions: PDB potato dextrose broth, 24° C., 3-4 days after application, read-out: control of Thanatephorus cucumeris (inhibition of growth, photometrically)
Experimental: Thanatephorus Cucumeris (Rhizoctonia solani)/Liquid Culture (Foot Rot, Damping-Off): Mycelia fragments of a newly grown liquid culture of the fungus are directly mixed into nutrient broth (PDB potato dextrose broth). After placing a DMSO solution of the test compounds into a 96-well microtiter plate at an application rate 200 ppm, the nutrient broth containing the fungal material was added. The test plates were incubated at 24° C. and the inhibition of growth was determined photometrically 3-4 days after application.

Pyrenophora teres = Pyrenophora teres / barley / leaf disc preventative (net blotch); format: in vivo; conditions: foliar, barley leaf segments cv Hasso, inoculated two days after application, assessed 5-7 days after application, read-out: control of Pyrenophora teres (disease control compared to untreated)
Experimental: Pyrenophora Teres/Barley/Leaf Disc Preventative (Net Blotch): Barley leaf segments cv Hasso are placed on agar in a 24-well plate and sprayed with formulated test compound diluted in water at an application rate of 200 ppm. The leaf segments are inoculated with a spore suspension of the fungus two days after application of the test solution. The inoculated leaf segments are incubated at 20° C. and 65% relative humidity under a light regime of 12/12 h (light/dark) in a climate cabinet and the activity of a compound is assessed as disease control compared to untreated when an appropriate level of disease damage appears in untreated check leaf segments (5-7 days after application).

[5] = test system: Puccinia recondita f. sp. tritici; assay: Puccinia recondita f. sp. tritici / wheat / leaf disc preventative (brown rust); format: in vivo; conditions: foliar, wheat leaf segments cv Kanzler, inoculated 1 day after application, assessed 7-9 days after application, read-out: control of Puccinia recondita f. sp. tritici, preventative (percent disease control compared to untreated)
Experimental: Puccinia Recondita f. Sp. Tritici/Wheat/Leaf Disc Preventative (Brown Rust): Wheat leaf segments cultivated variety (cv) Kanzler were placed on agar in 24-well plates and sprayed with formulated test compound diluted in water at an application rate of 200 ppm. The leaf disks were inoculated with a spore suspension of the fungus 1 day after application. The inoculated leaf segments were incubated at 19° C. and 75% relative humidity under a light regime of 12/12 h (light/dark) in a climate cabinet and the activity of a compound was assessed as percent disease control compared to untreated when an appropriate level of disease damage appears in untreated check leaf segments (7-9 days after application).

[6] = test system: Magnaporthe grisea (Pyricularia oryzae); assay: whole plant or invertebrate; format: in vivo; conditions: foliar, read-out: control of Magnaporthe grisea (percent disease control compared to untreated)
Pythium ultimum = Pythium ultimum / liquid culture (seedling damping off); format: cell-based; conditions: Globisporangium ultimum, PDB potato dextrose broth, 24° C., 2-3 days after application, read-out: control of Pythium ultimum (inhibition of growth, photometrically)
Experimental: Pythium Ultimum/Liquid Culture (Seedling Damping Off): Mycelia fragments and oospores of a newly grown liquid culture of the fungus were directly mixed into nutrient broth (PDB potato dextrose broth). After placing a DMSO solution of test compound into a 96 well microtiter plate at an application rate 200 ppm, the nutrient broth containing the fungal mycelia/spore mixture was added. The test plates were incubated at 24° C. and the inhibition of growth was determined photometrically 2-3 days after application.

Sclerotinia sclerotiorum = Sclerotinia sclerotiorum / liquid culture (cottony rot); format: cell-based; conditions: PDB potato dextrose broth, 24° C., 3-4 days after application, read-out: control of Sclerotinia sclerotiorum (inhibition of growth, photometrically)
Experimental: Sclerotinia Sclerotiorum/Liquid Culture (Cottony Rot) Mycelia fragments of a newly grown liquid culture of the fungus are directly mixed into nutrient broth (PDB potato dextrose broth). After placing a (DMSO) solution of test compound into a microtiter plate at an application rate 200 ppm (96-well format) the nutrient broth containing the fungal material is added. The test plates are incubated at 24° C. and the inhibition of growth is determined photometrically 3-4 days after application.

Plasmopara viticola = assay: whole plant or invertebrate; format: in vivo; conditions: foliar, read-out: control of Plasmopara viticola (percent disease control compared to untreated)
[7] = test system: Blumeria graminis f. sp. tritici (Erysiphe graminis f. sp. tritici); assay: Blumeria graminis f. sp. tritici / wheat / leaf disc preventative (powdery mildew on wheat); format: in vivo; conditions: foliar, wheat leaf segments cv. Kanzler, inoculated 1 day after application, assessed 6-8 days after application, read-out: control of Blumeria graminis (percent disease control compared to untreated)
Experimental: Blumeria Graminis f. Sp. Tritici (Erysiphe Graminis f. Sp. Tritici)/Wheat/Leaf Disc Preventative (Powdery Mildew on Wheat):
Wheat leaf segments cv. Kanzler were placed on agar in a 24-well plate and sprayed with the formulated test compound diluted in water at an application rate of 200 ppm. The leaf disks were inoculated by shaking powdery mildew infected plants above the test plates 1 day after application. The inoculated leaf disks were incubated at 20° C. and 60% relative humidity under a light regime of 24 h darkness followed by 12 h/12 h (dark/light) in a climate chamber and the activity of a compound was assessed as percent disease control compared to untreated when an appropriate level of disease damage appears on untreated check leaf segments (6-8 days after application). The following compounds gave at least 80% control of Blumeria graminis: […]

Phytophthora infestans = assay: whole plant or invertebrate; format: in vivo; conditions: in Solanum lycopersicum, foliar, read-out: control of Phytophthora infestans (percent disease control compared to untreated)

SMILES	melting point	pest or weed control at 200 ppm [1]	pest or weed control at 200 ppm (Alternaria solani)	inhibition at 200 ppm [2]	pest or weed control at 200 ppm [3]	inhibition at 200 ppm [4]	pest or weed control at 200 ppm (Pyrenophora teres)	pest or weed control at 200 ppm [5]	pest or weed control at 200 ppm [6]	inhibition at 200 ppm (Pythium ultimum)	inhibition at 200 ppm (Sclerotinia sclerotiorum)	pest or weed control at 200 ppm (Plasmopara viticola)	pest or weed control at 200 ppm [7]	pest or weed control at 200 ppm (Phytophthora infestans)
Clc1ccc2c(n1)/C(=N/OCC1(CO/N=C3\CCc4ccc(Cl)nc43)CC1)CC2 [P.21]	170 to 173 °C	–	–	–	–	–	–	–	–	–	–	–	–	–
c1ccc(-c2c3c(nc4ccccc24)/C(=N/OCCCO/N=C2\CCCc4c2nc2ccccc2c4-c2ccccc2)CCC3)cc1 [P.26]	205 to 210 °C	–	–	–	–	–	–	–	–	–	–	–	–	–
Cc1ccc2c(n1)/C(=N/OCCCO/N=C1\CCCc3c1nc1ccccc1c3C)CCC2 [P.37]	–	≥ 80%	≥ 80%	≥ 80%	≥ 80%	≥ 80%	≥ 80%	≥ 80%	≥ 80%	≥ 80%	≥ 80%	≥ 80%	≥ 80%	–
Cc1ccc2c(n1)/C(=N/OCC(C)(C)CO/N=C1\CCCc3c1nc1ccccc1c3C)CCC2 [P.38]	–	≥ 80%	≥ 80%	≥ 80%	≥ 80%	≥ 80%	≥ 80%	≥ 80%	≥ 80%	≥ 80%	≥ 80%	≥ 80%	≥ 80%	≥ 80%
Cc1ccc2c(n1)/C(=N/OCCCO/N=C1\CCCc3cc4c(nc31)CCCC4)CCC2 [P.39]	–	≥ 80%	≥ 80%	≥ 80%	≥ 80%	≥ 80%	≥ 80%	≥ 80%	≥ 80%	≥ 80%	≥ 80%	≥ 80%	≥ 80%	≥ 80%
Cc1ccc2c(n1)/C(=N/OCC(C)(C)CO/N=C1\CCCc3cc4c(nc31)CCCC4)CCC2 [P.40]	–	≥ 80%	≥ 80%	≥ 80%	≥ 80%	≥ 80%	≥ 80%	≥ 80%	≥ 80%	≥ 80%	≥ 80%	≥ 80%	≥ 80%	≥ 80%
Cc1ccc2c(n1)/C(=N/OCCCO/N=C1\CCCc3c(C(F)F)cc(C)nc31)CCC2 [P.46]	–	≥ 80%	–	≥ 80%	≥ 80%	–	≥ 80%	≥ 80%	≥ 80%	≥ 80%	≥ 80%	–	≥ 80%	–
c1c2c(nc3c1CCC/C3=N\OCC1(CO/N=C3\CCCc4cc5c(nc43)CCCC5)CC1)CCCC2 [P.49]	–	–	–	≥ 80%	≥ 80%	≥ 80%	–	≥ 80%	≥ 80%	–	≥ 80%	–	≥ 80%	≥ 80%
c1c2c(nc3c1CCC/C3=N\OCCCO/N=C1\CCCc3cc4c(nc31)CCCC4)CCCC2 [P.51]	–	–	–	≥ 80%	≥ 80%	≥ 80%	≥ 80%	≥ 80%	≥ 80%	≥ 80%	≥ 80%	–	≥ 80%	≥ 80%
